Results on 11 compounds are retold here after ChEMBL document CHEMBL1201862, “PubChem BioAssay data set” (2004).

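Compound exposure: 48 hours, 5 concentrations, 96-well plates. GI50 is the concentration that inhibits growth by half.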 Active and inactive are the calls of the source. No stated cut-off is given here; in the data, active = GI50 up to about 1.1 µM and inactive = higher. Bounds are passed on as bounds.

Some test systems named below: RXF 393; HOP-62; MCF7; HCC 2998; NCI/ADR-RES; A498; TK-10; CCRF-CEM; MDA-N; T47D; K562; SNB-75; EKVX; HCT-15; NCI-H522; MDA-MB-435; 786-0; UO-31; HT-29; HL-60.
Assay in all cases: growth of human tumour cells (NCI), 48 h

In the case of `Cn1c2ccccc2c2c3c(=O)[nH][nH]c(=O)c3c3c4ccccc4n(C)c3c21`, the GI50 was > 100 µM (inactive) with RXF 393; > 96.6 µM (inactive) in the test on HOP-62; 0.133 µM (active) in the test with MCF7; > 100 µM (inactive) in the test on HCC 2998; > 58.2 µM (inactive) in the test with NCI/ADR-RES; > 100 µM (inactive) in the test with A498. The GI50 was > 100 µM (inactive) in the test on TK-10; 0.655 µM (active) in the test on CCRF-CEM; > 100 µM (inactive) with MDA-N; 0.284 µM (active) with T47D; 58.5 µM (inactive) in the test on K562; > 100 µM (inactive) in the test with SNB-75. The GI50 in the test with EKVX was > 100 µM (inactive); with HCT-15, 99.1 µM; in the test on NCI-H522, 1.09 µM (active); in the test with MDA-MB-435, > 100 µM (inactive); with 786-0 it was > 100 µM (inactive); in the test on UO-31 it was > 100 µM (inactive). Besides, in the test with HT-29, the GI50 was > 100 µM (inactive).

On to `COc1ccc(NC(=O)C(=O)Cc2nc3ccc(C(=O)c4ccccc4)cc3nc2O)c([N+](=O)[O-])c1`, for which the GI50 was 23.1 µM (inactive) in the test on RXF 393; 34.6 µM (inactive) in the test with HOP-62; 41.6 µM (inactive) in the test on MCF7; 29.8 µM (inactive) with HCC 2998; 11.5 µM (inactive) in the test on NCI/ADR-RES; 16.6 µM (inactive) in the test with A498. For the same compound, the GI50 with TK-10 is 24.9 µM (inactive); in the test on CCRF-CEM, 28.2 µM (inactive); with MDA-N it was 23.4 µM (inactive); in the test with T47D, 17.2 µM (inactive); in the test with SNB-75, 17.7 µM (inactive); in the test with EKVX, 28.3 µM (inactive). Besides, the GI50 was 34 µM in the test on HCT-15; 12.8 µM (inactive) in the test with NCI-H522; 12.1 µM (inactive) in the test with MDA-MB-435; 39.1 µM (inactive) in the test on 786-0; 18.2 µM (inactive) in the test on UO-31; 14.9 µM (inactive) in the test on HT-29.

On to `CN(Cc1ccccc1)C(=S)S` [SODIUM BENZYL(METHYL)CARBAMODITHIOATE], for which the GI50 with RXF 393 is 54.5 µM (inactive); in the test on HOP-62, 43.2 µM (inactive); in the test on HL-60 it was 26.4 µM (inactive); in the test with MCF7, 45.5 µM (inactive); with HCC 2998 it was > 100 µM (inactive); in the test with NCI/ADR-RES it was 38.1 µM (inactive). The GI50 was > 100 µM (inactive) with A498; 16.5 µM (inactive) in the test on CCRF-CEM; 70.6 µM (inactive) in the test with MDA-N; 78.7 µM (inactive) in the test with T47D; 34.1 µM (inactive) in the test with K562; > 100 µM (inactive) in the test on SNB-75. The GI50 in the test with EKVX is 47 µM (inactive); in the test on HCT-15, 34 µM; in the test with NCI-H522 it was 27.8 µM (inactive); in the test with MDA-MB-435 it was 43.2 µM (inactive); in the test on 786-0, 19.2 µM (inactive); in the test with UO-31, 27.2 µM (inactive). In addition, the GI50 with HT-29 is 37.5 µM (inactive).

For `COC(=O)c1cc(O)c(O)c(O)c1-c1c(O)c(O)c(O)c(SC[C@H](NC(=O)OCc2ccccc2)C(=O)OCc2ccccc2)c1C(=O)OC`, the GI50 with RXF 393 was 20.2 µM (inactive); in the test with HOP-62, 35.1 µM (inactive); in the test with HL-60, 15.1 µM (inactive); in the test with MCF7, 18 µM (inactive); in the test on HCC 2998 it was 24.1 µM (inactive); in the test with NCI/ADR-RES, 35 µM (inactive). Further, the GI50 with A498 is 31.5 µM (inactive); in the test on TK-10 it was 67.9 µM (inactive); with CCRF-CEM it was 16.3 µM (inactive); in the test with MDA-N, 19.8 µM (inactive); in the test on T47D, 32.4 µM (inactive); in the test on K562, 19.6 µM (inactive). Besides, the GI50 was 20.3 µM (inactive) in the test on SNB-75; 19.7 µM (inactive) with EKVX; 27.5 µM in the test with HCT-15; 22.3 µM (inactive) in the test with NCI-H522; 11.1 µM (inactive) in the test on MDA-MB-435; 18.6 µM (inactive) in the test on 786-0. Besides, the GI50 in the test with HT-29 is 28.3 µM (inactive).

In the case of `Nc1ccc2c(c1)C(=O)c1c(F)cccc1-2`, the GI50 in the test with RXF 393 is 42.2 µM (inactive); in the test with HOP-62 it was 30.3 µM (inactive); in the test on MCF7, 10.1 µM (inactive); in the test on HCC 2998, 40 µM (inactive); in the test on NCI/ADR-RES, 35.6 µM (inactive); in the test with A498, > 100 µM (inactive). The GI50 in the test with TK-10 is 47.2 µM (inactive); with CCRF-CEM it was 15 µM (inactive); in the test on MDA-N, 93.3 µM (inactive); in the test with T47D, 63.8 µM (inactive); in the test with SNB-75, 10.4 µM (inactive); in the test on EKVX, 0.656 µM (active). Moreover, the GI50 in the test on HCT-15 is 39.3 µM; in the test with NCI-H522, 34.5 µM (inactive); with MDA-MB-435, > 100 µM (inactive); with 786-0 it was 29.4 µM (inactive); with UO-31, 20.8 µM (inactive); in the test on HT-29, 27.7 µM (inactive).

On to `Cc1c2cccc-2c(OCCOC(=O)n2ccnc2)cc2c1[nH]c1ccccc12`, for which the GI50 in the test with RXF 393 was 2.57 µM (inactive); in the test with HOP-62, 5.48 µM (inactive); with HL-60, 2.12 µM (inactive); with MCF7 it was 3.24 µM (inactive); in the test on HCC 2998, 2.82 µM (inactive); with NCI/ADR-RES, 2.82 µM (inactive). Moreover, the GI50 in the test on A498 is 6.52 µM (inactive); with TK-10, 3.85 µM (inactive); with MDA-N, 4.8 µM (inactive); with T47D, 2.49 µM (inactive); in the test on K562, 4.01 µM (inactive); in the test with SNB-75, 1.04 µM (active). Further, the GI50 with EKVX was 1.04 µM (active); in the test on HCT-15, 2.2 µM; in the test on NCI-H522, 2.14 µM (inactive); with MDA-MB-435, 3.12 µM (inactive); in the test on 786-0, 3.87 µM (inactive); in the test on UO-31, 1.84 µM (inactive). Also, the GI50 with HT-29 is 2.27 µM (inactive).

Take `O=C(CSc1nnc(SCC(=O)NN=C2CCCCC2)s1)NN=C1CCCCC1`: the GI50 in the test with RXF 393, in the test on HOP-62, in the test on MCF7, in the test on HCC 2998, in the test with NCI/ADR-RES and with A498 was > 100 µM (inactive) each time. Moreover, the GI50 in the test on TK-10, with CCRF-CEM, in the test on MDA-N, in the test with T47D, in the test with K562 and with SNB-75 was > 100 µM (inactive) each time. The GI50 with EKVX is > 100 µM (inactive); with HCT-15, greater than 100 µM; in the test on NCI-H522 it was > 100 µM (inactive); in the test on MDA-MB-435 it was > 100 µM (inactive); in the test on 786-0, > 100 µM (inactive); in the test on UO-31, > 100 µM (inactive). In the test with HT-29, the GI50 was > 100 µM (inactive).

As for `COc1ccc(NC(=S)N/N=C(\c2ccccc2)c2ccccn2)cc1`, the GI50 in the test on RXF 393 was 0.603 µM (active); in the test on HOP-62 it was 0.06 µM (active); with HL-60, < 0.01 µM (active); in the test with MCF7, < 0.01 µM (active); with HCC 2998, 2.42 µM (inactive); in the test on NCI/ADR-RES it was < 0.0904 µM (active). Also, the GI50 with A498 is 0.587 µM (active); with TK-10 it was 0.0244 µM (active); in the test with CCRF-CEM, 0.01 µM (active); with MDA-N, 0.263 µM (active); with T47D, < 0.0317 µM (active); in the test on K562, < 0.01 µM (active). In addition, the GI50 in the test with EKVX was < 0.0543 µM (active); with HCT-15, less than 0.01 µM; in the test on NCI-H522, 0.0552 µM (active); in the test with MDA-MB-435, 1.96 µM (inactive); in the test on 786-0 it was < 0.0267 µM (active); in the test with UO-31, 0.132 µM (active). Besides, the GI50 in the test with HT-29 is < 0.0118 µM (active).

Regarding `C[C@@H]1CC[C@@H]2[C@@H](C1)O[C@@H]([C@H](C)OCc1ccccc1)SC2(C)C`, the GI50 in the test on RXF 393 was 17.6 µM (inactive); with HOP-62, 34.4 µM (inactive); in the test on MCF7, 16.9 µM (inactive); in the test with HCC 2998, 17.9 µM (inactive); with NCI/ADR-RES, 25.5 µM (inactive); with A498, 19.7 µM (inactive). In addition, the GI50 was 32.1 µM (inactive) in the test with TK-10; 23.7 µM (inactive) in the test with MDA-N; 15.7 µM (inactive) in the test with T47D; 19.6 µM (inactive) in the test with K562; 16.4 µM (inactive) in the test with SNB-75; 45 µM (inactive) in the test on EKVX. In addition, the GI50 is 27.8 µM with HCT-15; 19.7 µM (inactive) with NCI-H522; 30.3 µM (inactive) in the test with MDA-MB-435; 21.2 µM (inactive) in the test on 786-0; 14.5 µM (inactive) with UO-31; 36 µM (inactive) in the test with HT-29.

With `COc1ccc(C2(O)c3ccccc3C(=O)N(C)C2(O)c2ccc(OC)cc2)cc1` (stereo unspecified), the GI50 was > 100 µM (inactive) in the test with RXF 393; 70.8 µM (inactive) with HOP-62; 32.6 µM (inactive) in the test with HL-60; 54.5 µM (inactive) with MCF7; 49.3 µM (inactive) in the test with HCC 2998; 24 µM (inactive) with NCI/ADR-RES. The GI50 in the test on A498 is 73.1 µM (inactive); in the test on TK-10, 59.4 µM (inactive); in the test on CCRF-CEM, 51.8 µM (inactive); in the test with MDA-N it was 17.7 µM (inactive); in the test on T47D, 52.4 µM (inactive); in the test on K562 it was 55.8 µM (inactive). In addition, the GI50 in the test on EKVX is 86.7 µM (inactive); in the test on HCT-15, 40.4 µM; with NCI-H522, 16.1 µM (inactive); in the test with MDA-MB-435 it was 17.3 µM (inactive); in the test with 786-0 it was 81.5 µM (inactive); with UO-31 it was 50.7 µM (inactive). For the same compound, in the test with HT-29, the GI50 is 28.5 µM (inactive).

As for `CC(=N\N=C\c1ccccn1)/C(C)=N/N=C(C)/C(C)=N/N=C/c1ccccn1`, the GI50 in the test with RXF 393, in the test with HOP-62, in the test on HL-60, with MCF7, in the test on HCC 2998 and in the test on NCI/ADR-RES was > 100 µM (inactive) each time. In addition, the GI50 in the test with A498, in the test on TK-10, with CCRF-CEM, in the test with MDA-N, in the test on T47D and with SNB-75 was > 100 µM (inactive) each time. In addition, the GI50 in the test on EKVX was > 100 µM (inactive); in the test on HCT-15 it was 71.3 µM; in the test on NCI-H522, > 100 µM (inactive); in the test on MDA-MB-435, > 100 µM (inactive); with 786-0, > 100 µM (inactive); in the test on UO-31 it was > 100 µM (inactive). Moreover, the GI50 in the test on HT-29 is > 100 µM (inactive).
